Experimental data published in PMC6348446 (Journal of Medicinal Chemistry, 2018).
In brackets after ≈: the same amount, converted by molar mass. Like-named read-outs stand apart in the source and are kept apart here. Each block holds one compound with its values, some of them ahead of it.

How the values were obtained:
[1] = Aqueous kinetic solubility by laser nephelometry; assay type: physicochemical; settings: for solubility kinetic: MilliQ water with 2.5% DMSO
Protocol: The aqueous solubility of the test compounds was measured using laser nephelometry.
Compounds were subject to serial dilution from 10 mM to 0.5 mM in DMSO. An aliquot was then mixed with MilliQ water to obtain an aqueous dilution plate with a final concentration range of 250 – 12 µM, with a final DMSO concentration of 2.5%. Triplicate aliquots were transferred to a flat-bottomed polystyrene plate which was immediately read on the NEPHELOstar (BMG Lab Technologies). The amount of laser scatter caused by insoluble particulates (relative nephelometry units, RNU) was plotted against compound concentration using a segmental regression fit, with the point of inflection being quoted as the compounds

[2] = Plasma stability, mouse; assay type: in vitro ADME; settings: 10 µM compound, 37 °C; for half-life at 10 µM: mouse, plasma, pH 7.4, read-out: Plasma stability T 1/2, Mouse
Protocol: (§1) Test compound (10 µM) was incubated in pre-warmed plasma at 37 ᵒC (that is buffered to pH 7.4 in ratio of 70:30 plasma to buffer). Immediately, at time zero, then at 30, 60, 120, and 180 min, a 50 µL aliquot of the incubation mixture was removed and mixed with 200 µL acetonitrile containing Donepezil as the internal standard (50 ng/ml) to stop the reaction. The samples were centrifuged to sediment the precipitated protein and the plates then sealed prior to UPLC-MS/MS analysis using a Xevo TQ-S Micro (Waters Corporation, USA).
(§2) XLfit (IDBS, UK) was used to calculate the exponential decay and consequently the rate constant (k) from the ratio of peak area of test compound to internal standard at each time point. The half-life was calculated for each test compound from the rate by using the […]
(§3) Parallel Artificial Membrane Permeability Assay (PAMPA)
(§4) PAMPA was performed using a 96-well pre-coated BD Gentest™ PAMPA plate (BD Biosciences, U.K.). Each well was divided into two chambers; donor and acceptor, separated by a lipid-oil-lipid tri-layer constructed in a porous filter. The effective permeability, Pe, of the compound was measured at pH 7.4. Stock solutions (5 mM) of the compound were prepared in DMSO. The compound was then further diluted to 10 µM in phosphate buffered […]
(§5) saline at pH 7.4. […] The compound […]
(§6) dissolved in phosphate buffered saline was then added to the donor side of the membrane and phosphate buffered saline without compound was added to the acceptor side. The PAMPA plate was left at room temperature for 5 h. After which time, an aliquot (100 µL) was then

[3] = Plasma stability, human; assay type: in vitro ADME; settings: 10 µM compound, 37 °C; for half-life at 10 µM: human, plasma, pH 7.4, read-out: Plasma stability T 1/2, Human
Protocol: as §1, §2, §3, §4, §5, §6

[4] = molecular target: T1, BRD9 (Homo sapiens, UniProt Q9H8M2); test: Western blot of BRD9 levels in HeLa cells after compound treatment; assay type: cell-based; settings: 1 μM compound; for remaining activity at 1 µM: Table 2, % of total protein remaining relative to 0.1% DMSO vehicle, HeLa cell lysates; for BRD9 degradation: HeLa cells
T1 construct: Western blot analysis of BRD9 and BRD7 levels after treatment of HeLa cells; endogenous in cells; host or cells: HeLa
T1 sequence (Q9H8M2 1-597): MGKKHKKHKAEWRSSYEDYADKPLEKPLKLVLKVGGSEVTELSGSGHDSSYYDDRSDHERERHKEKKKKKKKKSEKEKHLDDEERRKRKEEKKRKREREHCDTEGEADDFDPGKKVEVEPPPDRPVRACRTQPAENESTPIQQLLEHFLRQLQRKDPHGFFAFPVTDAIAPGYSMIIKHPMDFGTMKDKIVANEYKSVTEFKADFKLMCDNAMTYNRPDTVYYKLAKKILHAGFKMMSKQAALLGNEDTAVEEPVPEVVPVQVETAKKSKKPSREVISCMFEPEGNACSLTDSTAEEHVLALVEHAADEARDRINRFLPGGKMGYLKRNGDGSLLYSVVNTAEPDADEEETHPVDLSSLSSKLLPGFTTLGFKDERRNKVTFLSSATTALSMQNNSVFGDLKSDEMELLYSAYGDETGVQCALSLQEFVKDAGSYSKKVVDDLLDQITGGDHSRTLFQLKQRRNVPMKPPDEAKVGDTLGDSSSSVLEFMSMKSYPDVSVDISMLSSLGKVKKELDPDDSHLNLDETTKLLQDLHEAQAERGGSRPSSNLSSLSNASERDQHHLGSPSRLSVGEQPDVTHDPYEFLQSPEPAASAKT

- solubility kinetic [1]: 79 µM (≈ 78.6 µg/mL)
- half-life at 10 µM [2]: > 3 h
- half-life at 10 µM [3]: > 3 h
Compound: COc1cc(-c2cn(C)c(=O)c3cnccc23)cc(OC)c1CN1CCN(CCCCCOc2cc(-c3scnc3C)ccc2CNC(=O)[C@@H]2C[C@H](O)CN2C(=O)[C@@H](NC(=O)C2(F)CC2)C(C)(C)C)CC1 [cisVZ185]

- Aqueous Solubility (Kinetic) ([1]; 2.5% DMSO, listed as VZ185): ~100 µM
- solubility kinetic [1]: 85 µM (≈ 84.6 µg/mL)
- Plasma stability T 1/2, Mouse [2]: high stabilities
- half-life at 10 µM [2]: > 3 h
- Plasma stability T 1/2, Human [3]: high stabilities
- half-life at 10 µM [3]: > 3 h
Compound: COc1cc(-c2cn(C)c(=O)c3cnccc23)cc(OC)c1CN1CCN(CCCCCOc2cc(-c3scnc3C)ccc2CNC(=O)[C@@H]2C[C@@H](O)CN2C(=O)[C@@H](NC(=O)C2(F)CC2)C(C)(C)C)CC1 [Compound 51, (2S,4R)-N-(2-((5-(4-(2,6-Dimethoxy-4-(2-methyl-1-oxo-1,2-dihydro-2,7-naphthyridin-4-yl)benzyl)piperazin-1-yl)pentyl)oxy)-4-(4-methylthiazol-5-yl)benzyl)-1-((S)-2-(1-fluorocyclopropane-1-carboxamido)-3,3-dimethylbutanoyl)-4-hydroxypyrrolidine-2-carboxamide]

- remaining activity at 1 µM ([4]; 16 h, read-out: BRD9 16 h (%)): 89%
- BRD9 degradation ([4]; 4 h): at most 20%
- BRD9 degradation ([4]; 16 h): ≤ 30%
Compound: COc1cc(-c2cn(C)c(=O)c3cnccc23)cc(OC)c1CN1CCN(CCOCCOCC(=O)N[C@H](C(=O)N2C[C@H](O)C[C@H]2C(=O)NCc2ccc(-c3scnc3C)cc2)C(C)(C)C)CC1 [Compound 5, (2S,4R)-1-((S)-2-(2-(2-(2-(4-(2,6-Dimethoxy-4-(2-methyl-1-oxo-1,2-dihydro-2,7-naphthyridin-4-yl)benzyl)piperazin-1-yl)ethoxy)ethoxy)acetamido)-3,3-dimethylbutanoyl)-4-hydroxy-N-(4-(4-methylthiazol-5-yl)benzyl)pyrrolidine-2-carboxamide]

- remaining activity at 1 µM ([4]; 4 h, read-out: BRD9 4 h (%)): 14%
Compound: COc1cc(-c2cn(C)c(=O)c3cnccc23)cc(OC)c1CN1CCN(CCOCCOCCOc2cc(-c3scnc3C)ccc2CNC(=O)[C@@H]2C[C@@H](O)CN2C(=O)[C@@H](NC(=O)C2(F)CC2)C(C)(C)C)CC1 [Compound 26, (2S,4R)-N-(2-(2-(2-(2-(4-(2,6-Dimethoxy-4-(2-methyl-1-oxo-1,2-dihydro-2,7-naphthyridin-4-yl)benzyl)piperazin-1-yl)ethoxy)ethoxy)ethoxy)-4-(4-methylthiazol-5-yl)benzyl)-1-((S)-2-(1-fluorocyclopropane-1-carboxamido)-3,3-dimethylbutanoyl)-4-hydroxypyrrolidine-2-carboxamide]
